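How tested: cells in 96-well plates exposed to compound for 48 hours at five concentrations. Here, GI50 denotes the concentration required for 50% inhibition of growth. TGI denotes the concentration required for complete inhibition of growth.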
Tests used:
Assay in all cases: NCI anticancer screen, dose series, 48 h
MDA-MB-231 breast = tested on: MDA-MB-231 breast
U251 CNS = tested on: U251 CNS
MALME-3M melanoma = tested on: MALME-3M melanoma
A498 renal = tested on: A498 renal
HT29 colon = tested on: HT29 colon
SF-539 CNS = tested on: SF-539 CNS
HCT-116 colon = tested on: HCT-116 colon
NCI/ADR-RES ovarian = tested on: NCI/ADR-RES ovarian
DU-145 prostate = tested on: DU-145 prostate
T-47D breast = tested on: T-47D breast
SNB-19 CNS = tested on: SNB-19 CNS
SF-295 CNS = tested on: SF-295 CNS
NCI-H23 lung = tested on: NCI-H23 lung
SK-MEL-28 melanoma = tested on: SK-MEL-28 melanoma
A549 NSCLC = tested on: A549 NSCLC
786-0 renal = tested on: 786-0 renal
CCRF-CEM leukemia = tested on: CCRF-CEM leukemia
M14 melanoma = tested on: M14 melanoma
OVCAR-4 ovarian = tested on: OVCAR-4 ovarian
MDA-MB-435 = tested on: MDA-MB-435
SNB-75 CNS = tested on: SNB-75 CNS
TK-10 renal = tested on: TK-10 renal
MDA-MB-468 breast = tested on: MDA-MB-468 breast
NCI-H460 lung = tested on: NCI-H460 lung
BT-549 breast = tested on: BT-549 breast
HCT-15 colon = tested on: HCT-15 colon
RXF 393 renal = tested on: RXF 393 renal
SF-268 CNS = tested on: SF-268 CNS
K-562 leukemia = tested on: K-562 leukemia
NCI-H522 lung = tested on: NCI-H522 lung
SK-MEL-2 melanoma = tested on: SK-MEL-2 melanoma
HCC-2998 colon = tested on: HCC-2998 colon
OVCAR-3 ovarian = tested on: OVCAR-3 ovarian
MOLT-4 leukemia = tested on: MOLT-4 leukemia
RPMI-8226 leukemia = tested on: RPMI-8226 leukemia
COLO 205 colon = tested on: COLO 205 colon
OVCAR-8 ovarian = tested on: OVCAR-8 ovarian
OVCAR-5 ovarian = tested on: OVCAR-5 ovarian
SK-OV-3 ovarian = tested on: SK-OV-3 ovarian
SN12C renal = tested on: SN12C renal
NCI-H226 lung = tested on: NCI-H226 lung
HS 578T breast = tested on: HS 578T breast
LOX IMVI melanoma = tested on: LOX IMVI melanoma
KM12 colon = tested on: KM12 colon
SK-MEL-5 melanoma = tested on: SK-MEL-5 melanoma
HOP-92 NSCLC = tested on: HOP-92 NSCLC
PC-3 prostate = tested on: PC-3 prostate
HL-60(TB) leukemia = tested on: HL-60(TB) leukemia
IGROV1 ovarian = tested on: IGROV1 ovarian
CAKI-1 renal = tested on: CAKI-1 renal
SW-620 colon = tested on: SW-620 colon
UACC-257 melanoma = tested on: UACC-257 melanoma
UACC-62 melanoma = tested on: UACC-62 melanoma
HOP-62 NSCLC = tested on: HOP-62 NSCLC
ACHN renal = tested on: ACHN renal
SR leukemia = tested on: SR leukemia
MCF7 breast = tested on: MCF7 breast
EKVX NSCLC = tested on: EKVX NSCLC
UO-31 renal = tested on: UO-31 renal

## CN1CCN(Cc2ccc(NC(=O)c3cncc(C#Cc4cnc5ccc(N[C@H]6CCOC6)nn45)c3)cc2C(F)(F)F)CC1
MDA-MB-231 breast
  GI50: 0.0414 µM
  TGI: 0.231 µM
U251 CNS
  GI50: 0.219 µM
  TGI: 1.02 µM
MALME-3M melanoma
  GI50: 0.0982 µM
  TGI: 0.323 µM
A498 renal
  GI50: 0.278 µM
  TGI: 0.49 µM
HT29 colon
  GI50: 0.0903 µM
  TGI: 0.512 µM
SF-539 CNS
  GI50: 0.021 µM
  TGI: 0.102 µM
HCT-116 colon
  GI50: 0.037 µM
  TGI: 0.29 µM
NCI/ADR-RES ovarian
  GI50: 5.82 µM
  TGI: 25.3 µM
DU-145 prostate
  GI50: 0.17 µM
  TGI: 0.716 µM
T-47D breast
  GI50: 0.704 µM
  TGI: 5.15 µM
SNB-19 CNS
  GI50: 0.249 µM
  TGI: 1.12 µM
SF-295 CNS
  GI50: 0.291 µM
  TGI: 1.26 µM
NCI-H23 lung
  GI50: 0.0814 µM
  TGI: 0.249 µM
SK-MEL-28 melanoma
  GI50: 0.235 µM
  TGI: 0.996 µM
A549 NSCLC
  GI50: 0.175 µM
  TGI: 0.643 µM
786-0 renal
  GI50: 0.268 µM
  TGI: 0.959 µM
CCRF-CEM leukemia
  GI50: 0.0283 µM
  TGI: 0.687 µM
M14 melanoma
  GI50: 0.103 µM
  TGI: 0.315 µM
OVCAR-4 ovarian
  GI50: 0.26 µM
  TGI: 2.13 µM
MDA-MB-435
  GI50: 0.0958 µM
  TGI: 0.813 µM
SNB-75 CNS
  GI50: 0.144 µM
  TGI: 0.33 µM
TK-10 renal
  GI50: 0.254 µM
  TGI: 0.828 µM
MDA-MB-468 breast
  GI50: 0.0903 µM
  TGI: 0.211 µM
NCI-H460 lung
  GI50: 0.144 µM
  TGI: 0.828 µM
BT-549 breast
  GI50: 0.291 µM
  TGI: 0.915 µM
HCT-15 colon
  GI50: 0.321 µM
  TGI: 1.29 µM
RXF 393 renal
  GI50: 0.108 µM
  TGI: 0.274 µM
SF-268 CNS
  GI50: 0.18 µM
  TGI: 0.917 µM
K-562 leukemia
  GI50: 0.0069 µM
  TGI: 0.93 µM
NCI-H522 lung
  GI50: 0.103 µM
  TGI: 0.249 µM
SK-MEL-2 melanoma
  GI50: 0.152 µM
  TGI: 0.35 µM
HCC-2998 colon
  GI50: 0.181 µM
  TGI: 0.866 µM
OVCAR-3 ovarian
  GI50: 0.183 µM
  TGI: 1.03 µM
MOLT-4 leukemia
  GI50: 0.0468 µM
  TGI: 0.866 µM
RPMI-8226 leukemia
  GI50: 0.237 µM
  TGI: 1.23 µM
COLO 205 colon
  GI50: 0.088 µM
  TGI: 0.197 µM
OVCAR-8 ovarian
  GI50: 0.252 µM
  TGI: 1.13 µM
OVCAR-5 ovarian
  GI50: 0.142 µM
  TGI: 0.536 µM
SK-OV-3 ovarian
  GI50: 0.446 µM
  TGI: 2.01 µM
SN12C renal
  GI50: 0.0337 µM
  TGI: 0.398 µM
NCI-H226 lung
  GI50: 0.0147 µM
  TGI: 0.218 µM
HS 578T breast
  GI50: 0.0621 µM
  TGI: 0.393 µM
LOX IMVI melanoma
  GI50: 0.0566 µM
  TGI: 0.153 µM
KM12 colon
  GI50: 0.0069 µM
  TGI: 0.526 µM
SK-MEL-5 melanoma
  GI50: 0.487 µM
  TGI: 1.39 µM
HOP-92 NSCLC
  GI50: 0.0137 µM
  TGI: 0.0822 µM
PC-3 prostate
  GI50: 0.185 µM
  TGI: 3.69 µM
HL-60(TB) leukemia
  GI50: 0.0437 µM
  TGI: 0.704 µM
IGROV1 ovarian
  GI50: 0.136 µM
  TGI: 0.394 µM
CAKI-1 renal
  GI50: 0.148 µM
  TGI: 0.511 µM
SW-620 colon
  GI50: 0.0723 µM
  TGI: 0.367 µM
UACC-257 melanoma
  GI50: 0.483 µM
  TGI: 1.99 µM
UACC-62 melanoma
  GI50: 0.151 µM
  TGI: 0.801 µM
HOP-62 NSCLC
  GI50: 0.172 µM
  TGI: 0.677 µM
ACHN renal
  GI50: 0.278 µM
  TGI: 0.98 µM
SR leukemia
  GI50: 0.095 µM
  TGI: 9.33 µM
MCF7 breast
  GI50: 0.0461 µM
  TGI: 0.274 µM
EKVX NSCLC
  GI50: 0.128 µM
  TGI: 0.696 µM
UO-31 renal
  GI50: 0.962 µM
  TGI: 2.29 µM
